According to patent publication US9833423B2 (KOREA RESEARCH INSTITUTE OF CHEMICAL TECHNOLOGY, priority 2011, dated 2017):
Values after ≈ are worked out from the molar mass of the structure shown. Read-outs that look alike come from different tables or passages of the source.

Assays:
[1] = system: Coxsackie-virus B1; assay: Cytopathic effect (CPE) inhibition assay; assay type: cell-based, Coxsackievirus B1; conditions: Enterovirus B, HeLa37, 48 h, HeLa, 37° C., 2 days
[2] = in vitro; conditions: human
[3] = Table 3, read-out: EC50 Coxsackie-virus B1
[4] = Table 4, read-out: Coxsackie-virus B1 EC50

In the case of `C=CC(=O)Oc1cc(C(C)C)ccc1C1(OC(=O)C=C)C(=O)c2ccccc2C1=O` [Example 32, 2-(2-(Acryloyloxy)-1,3-dioxo-2,3-dihydro-1H-inden-2-yl)-5-isopropylphenyl acrylate], the EC50 [1, 3] is reported as < 0.01 µg/mL and the CC50 ([2]; CC50) is reported as 28.7 µg/mL (≈ 70.9 µM).
Compound `CC(=O)Oc1cc(C(C)C)ccc1C1(OC(C)=O)C(=O)c2cccc([N+](=O)[O-])c2C1=O` (stereo not drawn) [Example 37, Acetic acid 2-(2-acetoxy-4-isopropyl-phenyl)-4-nitro-1,3-dioxo-indan-2-yl ester] has a melting point of 94 to 98 °C and a CC50 ([2]; CC50) of 62.7 µg/mL (≈ 147 µM).
`COc1cc(C(C)C)ccc1C1(Cl)C(=O)c2cccc([N+](=O)[O-])c2C1=O` (stereo not drawn) [Example 39, 2-Chloro-2-(4-isopropyl-2-methoxyphenyl)-4-nitro-2H-inden-1,3-dione] showed a melting point of 81 to 84 °C and a CC50 ([2]; CC50) of 6.67 µg/mL (≈ 17.8 µM).
Compound `COc1cc(C(C)C)ccc1C1(O)C(=O)c2c(NC(C)=O)ccc([N+](=O)[O-])c2C1=O` (stereo not drawn) [Example 42, N-(2-Hydroxy-2-(4-isopropyl-2-methoxyphenyl)-7-nitro-1,3-dioxo-2,3-dihydro-1H-inden-4-yl)acetamide] has a melting point of 110 to 115 °C and a CC50 ([2]; CC50) of 71.1 µg/mL (≈ 172 µM).
`COc1cc(C(C)C)ccc1C1(O)C(=O)c2ccc([N+](=O)[O-])c(NC(C)=O)c2C1=O` (stereo not drawn) [Example 43, N-(2-Hydroxy-2-(4-isopropyl-2-methoxyphenyl)-5-nitro-1,3-dioxo-2,3-dihydro-1H-inden-4-yl)acetamide] showed a melting point of 199 to 201 °C and a CC50 ([2]; CC50) of 61.7 µg/mL (≈ 150 µM).
For `COc1cc(C(C)C)ccc1C1(O)C(=O)c2ccc(N)c(NC(C)=O)c2C1=O` (stereo not drawn) [Example 45, N-(5-Amino-2-hydroxy-2-(4-isopropyl-2-methoxyphenyl)-1,3-dioxo-2,3-dihydro-1H-inden-4-yl)acetamide], the melting point was 124 to 131 °C and the CC50 ([2]; CC50) was > 117 µg/mL.
In the case of `COc1cc(C(C)C)ccc1C1(O)C(=O)c2c(N)ccc(N)c2C1=O` [Example 46, 4,7-Diamino-2-hydroxy-2-(4-isopropyl-2-methoxyphenyl)-2H-inden-1,3-dione], the melting point is reported as 243 to 247 °C and the CC50 ([2]; CC50) is reported as 64 µg/mL (≈ 188 µM).
Work on `COc1cc(C(C)C)ccc1C1(O)C(=O)c2ccc(N)c(N)c2C1=O` (stereo not drawn) [Example 47, 4,5-Diamino-2-hydroxy-2-(4-isopropyl-2-methoxyphenyl)-2H-inden-1,3-dione] yielded a melting point of 272 to 274 °C and a CC50 ([2]; CC50) of 50.9 µg/mL (≈ 150 µM).
`CC(C)C(=O)NC1(c2ccc(C(C)C)cc2OC(=O)C(C)C)C(=O)c2ccccc2C1=O` [Example 50, 2-(2-Isobutylamido-1,3-dioxo-2,3-dihydro-1H-inden-2-yl)-5-isopropylphenyl isobutyrate] gave an EC50 [1, 3] of 0.0112 µg/mL (≈ 0.0257 µM) and a CC50 ([2]; CC50) of 44.3 µg/mL (≈ 102 µM).
`CC(C)c1ccc(C2(O)Cc3ccccc3C2=O)c(O)c1` (stereo not drawn) [Example 51, 2-Hydroxy-2-(2-hydroxy-4-isopropylphenyl)-2,3-dihydro-1H-inden-1-one] showed a melting point of 144 to 146 °C and a CC50 ([2]; CC50) of 9.34 µg/mL (≈ 33.1 µM).
With `COc1cc(C(C)C)ccc1C1(N=[N+]=[N-])C(=O)c2ccccc2C1=O` [Example 52, 2-Azido-2-(4-isopropyl-2-methoxyphenyl)-2H-inden-1,3-dione] the melting point was 175 to 177 °C and the CC50 ([2]; CC50) was 27.7 µg/mL (≈ 82.5 µM).
Work on `COc1cc(C(C)C)ccc1C1(N)C(=O)c2ccccc2C1=O` [Example 53, 2-Amino-2-(4-isopropyl-2-methoxyphenyl)-2H-inden-1,3-dione] yielded a melting point of 164 to 166 °C and a CC50 ([2]; CC50) of 10.2 µg/mL (≈ 33 µM).
With `COc1cc(C(C)C)ccc1C1(NC(=O)c2ccccc2)C(=O)c2ccccc2C1=O` [Example 55, N-(2-(4-Isopropyl-2-methoxyphenyl)-1,3-dioxo-2,3-dihydro-1H-inden-2-yl)benzamide] the melting point was 106 to 108 °C and the CC50 ([2]; CC50) was > 117 µg/mL.
`COc1cc(C(C)C)ccc1C1(NC(=O)C2CC2)C(=O)c2ccccc2C1=O` [Example 56, N-(2-(4-Isopropyl-2-methoxyphenyl)-1,3-dioxo-2,3-dihydro-1H-inden-2-yl) cyclopropancarboxamide] showed a melting point of 145 to 147 °C and a CC50 ([2]; CC50) of 87.8 µg/mL (≈ 233 µM).
`CSc1ccccc1C1(O)C(=O)c2ccccc2C1=O` [Example 57] showed a melting point of 191 to 193 °C and a CC50 ([2]; CC50) of 48.2 µg/mL (≈ 170 µM).
In the case of `CSc1ccc(C2(O)C(=O)c3ccccc3C2=O)cc1` [Example 58], the melting point is reported as 153 to 155 °C and the CC50 ([2]; CC50) is reported as 47.8 µg/mL (≈ 168 µM).
With `COC(=O)NC1(c2ccc(C(C)C)cc2OC)C(=O)c2ccccc2C1=O` [Example 59, Methyl 2-(4-isopropyl-2-methoxyphenyl)-1,3-dioxo-2,3-dihydro-1H-inden-2-ylcarbamate] the melting point was 153 to 155 °C and the CC50 ([2]; CC50) was 53.7 µg/mL (≈ 146 µM).
`CCNC(=O)NC1(c2ccc(C(C)C)cc2OC)C(=O)c2ccccc2C1=O` [Example 60, 1-Ethyl-3-(2,3-dihydro-2-(4-isopropyl-2-methoxyphenyl)-1,3-dioxo-1H-inden-2-yl)urea] showed a melting point of 267 to 269 °C and a CC50 ([2]; CC50) of 68.9 µg/mL (≈ 181 µM).
In the case of `COc1cc(C(C)C)ccc1C1(NC(N)=O)C(=O)c2ccccc2C1=O` [Example 61, 1-(2,3-Dihydro-2-(4-isopropyl-2-methoxyphenyl)-1,3-dioxo-1H-inden-2-yl)urea], the melting point is reported as 272 to 274 °C and the CC50 ([2]; CC50) is reported as > 117 µg/mL.
Work on `COc1cc(C(C)C)ccc1C1(NC(=O)OC(C)C)C(=O)c2ccccc2C1=O` [Example 62, Isopropyl 2-(4-isopropyl-2-methoxyphenyl)-1,3-dioxo-2,3-dihydro-1H-inden-2-ylcarbamate] yielded a melting point of 159 to 161 °C and a CC50 ([2]; CC50) of 11.3 µg/mL (≈ 28.5 µM).
With `CONC(=O)NC1(c2ccc(C(C)C)cc2OC)C(=O)c2ccccc2C1=O` [Example 63, 1-(2-(4-Isopropyl-2-methoxyphenyl)-1,3-dioxo-2,3-dihydro-1H-inden-2-yl)-3-methoxy urea] the melting point was 153 to 155 °C and the CC50 ([2]; CC50) was > 117 µg/mL.
`CCOC(=O)NC1(c2ccc(C(C)C)cc2OC)C(=O)c2ccccc2C1=O` [Example 64, Ethyl 2-(4-isopropyl-2-methoxyphenyl)-1,3-dioxo-2,3-dihydro-1H-inden-2-ylcarbamate] gave a melting point of 149 to 150 °C and a CC50 ([2]; CC50) of 87.8 µg/mL (≈ 230 µM).
For `COc1cc(C(C)C)ccc1C1(Br)C(=O)c2cccc(NC(C)=O)c2C1=O` (stereo not drawn) [Example 65, N-(2-Bromo-2-(4-isopropyl-2-methoxyphenyl)-1,3-dioxo-2,3-dihydro-1H-inden-4-yl)acetamide], the melting point was 143 to 145 °C and the CC50 ([2]; CC50) was 11.2 µg/mL (≈ 25.9 µM).
`COc1cc(C(C)C)ccc1C1(N)C(=O)c2cccc(NC(C)=O)c2C1=O` (stereo not drawn) [Example 66, N-(2-Amino-2-(4-isopropyl-2-methoxyphenyl)-1,3-dioxo-2,3-dihydro-1H-inden-4-yl)acetamide] gave a melting point of 183 to 185 °C and a CC50 ([2]; CC50) of 26.7 µg/mL (≈ 72.8 µM).
`COc1cc(C(C)C)ccc1C1(NC(C)=O)C(=O)c2cccc(NC(C)=O)c2C1=O` (stereo not drawn) [Example 67, N,N′-(2-(4-Isopropyl-2-methoxyphenyl)-1,3-dioxo-2,3-dihydro-1H-inden-2,4-diyl)diacetamide] gave a melting point of 241 to 243 °C and a CC50 ([2]; CC50) of 54.6 µg/mL (≈ 134 µM).
In the case of `CCC(=O)Nc1cc(C)c(C)cc1C1(O)C(=O)c2ccccc2C1=O` [Example 87, N-(2-(2-Hydroxy-1,3-dioxo-2,3-dihydro-1H-inden-2-yl)-4,5-dimethylphenyl)propionamide], the EC50 [1, 4] is reported as 0.019 µg/mL (≈ 0.0563 µM) and the CC50 ([2]; Picorna-virus CC50) is reported as 8.31 µg/mL (≈ 24.6 µM).
Compound `CCCCCCCC(=O)NC1(c2ccc(C(C)C)cc2OC(=O)CCCCCCC)C(=O)c2cccc(N)c2C1=O` (stereo not drawn) [Example 91, 2-(4-Amino-2-octanamido-1,3-dioxo-2,3-dihydro-1H-inden-2-yl)-5-isopropylphenyl octanoate] has an EC50 [1, 4] of 0.015 µg/mL (≈ 0.0267 µM) and a CC50 ([2]; Picorna-virus CC50) of 40 µg/mL (≈ 71.1 µM).
